# Experimental data: ChEMBL document CHEMBL1138125, “A new chemical tool for exploring the role of the PDE4D isozyme in leukocyte function” (Bioorg Med Chem Lett, 2006)
# Assays:
# [1] = molecular target: Adrenergic receptor alpha-2 (Homo sapiens) (UniProt P08913+P18825+P18089); assay: Binding affinity to Adrenergic alpha-2 receptor at 10 uM; assay type: protein assay
# [2] = molecular target: T1, 3',5'-cyclic-AMP phosphodiesterase 4D (Homo sapiens, UniProt Q08499); assay: cAMP elevation in U937 cells; assay type: functional, cell-based, U-937
# [3] = molecular target: D(4) dopamine receptor (Homo sapiens) (UniProt P21917); assay: Binding affinity to dopamine D4 receptor at 10 uM
# [4] = molecular target: Serotonin 3 (5-HT3) receptor (Homo sapiens) (UniProt P46098+A5X5Y0+O95264+Q70Z44+Q8WXA8); assay: Binding affinity to serotonin 5HT3 receptor at 10 uM; assay type: protein-complex assay
# [5] = molecular target: High affinity cGMP-specific 3',5'-cyclic phosphodiesterase 9A (Homo sapiens, UniProt O76083); assay: Inhibition of PDE9
# Cynomolgus monkey = assay: Inhibition of eosinophil infiltration in bronchoalveolar lavage fluid from cynomolgus monkeys exposed to Ascaris suum.; assay type: functional, Macaca fascicularis, Lung
# [6] = molecular target: High affinity cAMP-specific and IBMX-insensitive 3',5'-cyclic phosphodiesterase 8B (Homo sapiens, UniProt O95263); assay: Inhibition of PDE8B
# [7] = molecular target: Melanocortin receptor 4 (Homo sapiens) (UniProt P32245); assay: Binding affinity to MCR4 at 10 uM
# [8] = molecular target: Glutamate receptor ionotropic kainate (Homo sapiens) (UniProt P39086+Q16478+Q16099+Q13002+Q13003); assay: Binding affinity to kainate receptor at 10 uM; assay type: protein-complex assay
# [9] = molecular target: 5-hydroxytryptamine receptor 1A (Homo sapiens) (UniProt P08908); assay: Binding affinity to serotonin 5HT1A receptor at 10 uM
# [10] = molecular target: Beta-2 adrenergic receptor (Homo sapiens) (UniProt P07550); assay: Binding affinity to adrenergic beta2 receptor at 10 uM
# [11] = molecular target: B1 bradykinin receptor (Homo sapiens) (UniProt P46663); assay: Binding affinity to bradykinin B1 receptor at 10 uM
# [12] = molecular target: T2, Voltage-gated L-type calcium channel (Homo sapiens, UniProt Q13936+Q13698+Q01668+O60840); assay: Binding affinity to dilitiazem sensitive calcium channel L type at 10 uM; assay type: protein assay
# [13] = molecular target: Voltage-dependent N-type calcium channel subunit alpha-1B (Homo sapiens) (UniProt Q00975); assay: Binding affinity to calcium channel N type at 10 uM
# [14] = molecular target: cGMP-specific 3',5'-cyclic phosphodiesterase (Homo sapiens, UniProt O76074); assay: Inhibition of PDE5
# [15] = molecular target: 5-hydroxytryptamine receptor 7 (Homo sapiens) (UniProt P34969); assay: Binding affinity to serotonin 5HT7 receptor at 10 uM
# [16] = molecular target: D(2) dopamine receptor (Homo sapiens) (UniProt P14416); assay: Binding affinity to dopamine D2 receptor at 10 uM
# [17] = molecular target: Acetylcholine receptor; alpha1/beta1/delta/gamma (Homo sapiens) (UniProt P02708+P07510+P11230+Q07001); assay: Binding affinity to nicotinic muscle receptor at 10 uM; assay type: protein-complex assay
# [18] = molecular target: Muscarinic acetylcholine receptor M4 (Homo sapiens) (UniProt P08173); assay: Binding affinity to Muscarinic M4 receptor at 10 uM
# [19] = molecular target: T1, 3',5'-cyclic-AMP phosphodiesterase 4D; assay: Inhibition of PDE4D
# [20] = molecular target: Delta-type opioid receptor (Homo sapiens) (UniProt P41143); assay: Binding affinity to opiate delta receptor at 10 uM
# [21] = molecular target: D(3) dopamine receptor (Homo sapiens) (UniProt P35462); assay: Binding affinity to dopamine D3 receptor at 10 uM
# [22] = molecular target: Adrenergic receptor alpha-1 (Homo sapiens) (UniProt P35348+P25100+P35368); assay: Binding affinity to Adrenergic alpha-1 receptor at 10 uM; assay type: protein assay
# [23] = molecular target: T3, 3',5'-cyclic-AMP phosphodiesterase 4B (Homo sapiens, UniProt Q07343); assay: Inhibition of PDE4B
# [24] = molecular target: T2, Voltage-gated L-type calcium channel; assay: Binding affinity to DHP sensitive calcium channel L type at 10 uM; assay type: protein assay
# [25] = molecular target: Muscarinic acetylcholine receptor M1 (Homo sapiens) (UniProt P11229); assay: Binding affinity to Muscarinic M1 receptor at 10 uM
# [26] = molecular target: Substance-P receptor (Homo sapiens) (UniProt P25103); assay: Binding affinity to neurokinin K1 receptor at 10 uM
# [27] = molecular target: Type-2 angiotensin II receptor (Homo sapiens) (UniProt P50052); assay: Binding affinity to angiotensin II receptor type 2 at 10 uM
# [28] = molecular target: T1, 3',5'-cyclic-AMP phosphodiesterase 4D; assay: Inhibition of release of LTE4 in human whole blood; assay type: functional, tissue-based
# [29] = molecular target: Glutamate [NMDA] receptor (Homo sapiens) (UniProt Q05586+Q12879+Q13224+O15399+O60391+Q14957+Q8TCU5); assay: Binding affinity to NMDA receptor at 10 uM; assay type: protein-complex assay
# [30] = molecular target: Muscarinic acetylcholine receptor M2 (Homo sapiens) (UniProt P08172); assay: Binding affinity to Muscarinic M2 receptor at 10 uM
# [31] = molecular target: Mu-type opioid receptor (Homo sapiens) (UniProt P35372); assay: Binding affinity to opiate mu receptor at 10 uM
# [32] = molecular target: High affinity cAMP-specific and IBMX-insensitive 3',5'-cyclic phosphodiesterase 8A (Homo sapiens, UniProt O60658); assay: Inhibition of PDE8A
# [33] = molecular target: Sodium-dependent dopamine transporter (Homo sapiens) (UniProt Q01959); assay: Binding affinity to dopamine transporter at 10 uM
# [34] = molecular target: Sodium-dependent serotonin transporter (Homo sapiens) (UniProt P31645); assay: Binding affinity to serotonin transporter at 10 uM
# [35] = molecular target: T2, Voltage-gated L-type calcium channel; assay: Binding affinity to verapamil sensitive calcium channel L type at 10 uM; assay type: protein assay
# [36] = Binding affinity to GABA transporter at 10 uM
# [37] = molecular target: Thyroid hormone receptor (Homo sapiens) (UniProt P10827+P10828); assay: Binding affinity to thyroid hormone receptor at 10 uM; assay type: protein-complex assay
# [38] = molecular target: Vasopressin V1 receptor (Homo sapiens) (UniProt P37288+P47901); assay: Binding affinity to vasopressin V1 receptor at 10 uM; assay type: protein assay
# [39] = molecular target: D(1A) dopamine receptor (Homo sapiens) (UniProt P21728); assay: Binding affinity to dopamine D1 receptor at 10 uM
# [40] = molecular target: Glutamate receptor ionotropic AMPA (Homo sapiens) (UniProt P48058+P42263+P42262+P42261); assay: Binding affinity to AMPA receptor at 10 uM; assay type: protein-complex assay
# [41] = Binding affinity to GABA receptor at 10 uM
# [42] = molecular target: High affinity choline transporter 1 (Homo sapiens) (UniProt Q9GZV3); assay: Binding affinity to choline transporter at 10 uM
# [43] = molecular target: Beta-1 adrenergic receptor (Homo sapiens) (UniProt P08588); assay: Binding affinity to adrenergic beta-1 receptor at 10 uM
# [44] = molecular target: Sodium-dependent noradrenaline transporter (Homo sapiens) (UniProt P23975); assay: Binding affinity to norepinephrine transporter at 10 uM
# [45] = molecular target: cAMP and cAMP-inhibited cGMP 3',5'-cyclic phosphodiesterase 10A (Homo sapiens, UniProt Q9Y233); assay: Inhibition of PDE10
# [46] = molecular target: Vasopressin V2 receptor (Homo sapiens) (UniProt P30518); assay: Binding affinity to vasopressin V2 receptor at 10 uM
# [47] = molecular target: Histamine H1 receptor (Homo sapiens) (UniProt P35367); assay: Binding affinity to Histamine H1 receptor at 10 uM
# [48] = molecular target: Platelet-activating factor receptor (Homo sapiens) (UniProt P25105); assay: Binding affinity to platelet activating factor at 10 uM
# [49] = molecular target: Glucocorticoid receptor (Homo sapiens) (UniProt P04150); assay: Binding affinity to glucocorticoid receptor at 10 uM
# [50] = molecular target: T3, 3',5'-cyclic-AMP phosphodiesterase 4B; assay: Inhibition of release of TNF alpha in human whole blood; assay type: functional, tissue-based
# [51] = molecular target: T1, 3',5'-cyclic-AMP phosphodiesterase 4D; conditions: Blood
# Description: Inhibition of release of Eosinophil derived neurotoxin in human whole blood
# [52] = Binding affinity to nicotinic neuronal receptor at 10 uM
# [53] = molecular target: Adenosine receptor A3 (Homo sapiens) (UniProt P0DMS8); assay: Binding affinity to adenosine A3 receptor at 10 uM
# [54] = molecular target: Histamine H2 receptor (Homo sapiens) (UniProt P25021); assay: Binding affinity to Histamine H2 receptor at 10 uM
# [55] = molecular target: Kappa-type opioid receptor (Homo sapiens) (UniProt P41145); assay: Binding affinity to opiate kappa receptor at 10 uM
# [56] = molecular target: Adenosine receptor A2a (Homo sapiens) (UniProt P29274); assay: Binding affinity to adenosine A2A receptor at 10 uM
# [57] = molecular target: cGMP-dependent 3',5'-cyclic phosphodiesterase (Homo sapiens, UniProt O00408); assay: Inhibition of PDE2
# [58] = molecular target: 3',5'-cyclic-AMP phosphodiesterase 4C (Homo sapiens, UniProt Q08493); assay: Inhibition of PDE4C
# [59] = molecular target: B2 bradykinin receptor (Homo sapiens) (UniProt P30411); assay: Binding affinity to bradykinin B2 receptor at 10 uM
# [60] = molecular target: Muscarinic acetylcholine receptor M3 (Homo sapiens) (UniProt P20309); assay: Binding affinity to Muscarinic M3 receptor at 10 uM
# [61] = molecular target: Histamine H3 receptor (Homo sapiens) (UniProt Q9Y5N1); assay: Binding affinity to Histamine H3 receptor at 10 uM
# [62] = molecular target: 3',5'-cyclic-AMP phosphodiesterase 4A (Homo sapiens, UniProt P27815); assay: Inhibition of PDE4A
# [63] = molecular target: Adenosine receptor A1 (Homo sapiens) (UniProt P30542); assay: Binding affinity to adenosine A1 receptor at 10 uM
# Phosphodiesterase 3 = Phosphodiesterase 3 (Homo sapiens, UniProt Q14432+Q13370); assay: Inhibition of PDE3; assay type: protein assay
# [64] = molecular target: 5-hydroxytryptamine receptor 4 (Homo sapiens) (UniProt Q13639); assay: Binding affinity to serotonin 5HT4 receptor at 10 uM
# [65] = molecular target: Type-1 angiotensin II receptor (Homo sapiens) (UniProt P30556); assay: Binding affinity to angiotensin II receptor type 1 at 10 uM
# [66] = molecular target: Dual 3',5'-cyclic-AMP and -GMP phosphodiesterase 11A (Homo sapiens, UniProt Q9HCR9); assay: Inhibition of PDE11
# T1 sequence (Q08499 whole entry): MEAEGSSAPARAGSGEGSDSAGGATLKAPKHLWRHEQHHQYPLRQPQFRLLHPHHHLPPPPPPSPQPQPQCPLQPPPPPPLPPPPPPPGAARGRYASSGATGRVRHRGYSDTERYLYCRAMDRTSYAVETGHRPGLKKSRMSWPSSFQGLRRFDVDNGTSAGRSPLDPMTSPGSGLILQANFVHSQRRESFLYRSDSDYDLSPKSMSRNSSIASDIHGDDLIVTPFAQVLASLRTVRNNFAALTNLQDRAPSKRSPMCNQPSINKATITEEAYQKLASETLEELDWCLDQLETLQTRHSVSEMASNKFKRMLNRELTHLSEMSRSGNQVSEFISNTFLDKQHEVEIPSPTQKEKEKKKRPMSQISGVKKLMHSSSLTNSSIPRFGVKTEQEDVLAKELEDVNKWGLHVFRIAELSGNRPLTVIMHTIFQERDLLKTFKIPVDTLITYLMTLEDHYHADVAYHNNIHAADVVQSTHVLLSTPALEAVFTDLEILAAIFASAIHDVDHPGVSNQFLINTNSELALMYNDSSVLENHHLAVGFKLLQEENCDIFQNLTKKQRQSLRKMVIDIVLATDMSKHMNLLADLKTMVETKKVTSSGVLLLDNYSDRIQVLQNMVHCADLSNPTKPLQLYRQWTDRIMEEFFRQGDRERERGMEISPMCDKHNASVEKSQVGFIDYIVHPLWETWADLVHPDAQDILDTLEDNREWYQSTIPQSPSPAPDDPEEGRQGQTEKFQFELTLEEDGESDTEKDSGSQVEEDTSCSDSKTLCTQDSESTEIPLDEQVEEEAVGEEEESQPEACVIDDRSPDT
# High affinity cGMP-specific 3',5'-cyclic phosphodiesterase 9A, sequence (O76083 whole entry): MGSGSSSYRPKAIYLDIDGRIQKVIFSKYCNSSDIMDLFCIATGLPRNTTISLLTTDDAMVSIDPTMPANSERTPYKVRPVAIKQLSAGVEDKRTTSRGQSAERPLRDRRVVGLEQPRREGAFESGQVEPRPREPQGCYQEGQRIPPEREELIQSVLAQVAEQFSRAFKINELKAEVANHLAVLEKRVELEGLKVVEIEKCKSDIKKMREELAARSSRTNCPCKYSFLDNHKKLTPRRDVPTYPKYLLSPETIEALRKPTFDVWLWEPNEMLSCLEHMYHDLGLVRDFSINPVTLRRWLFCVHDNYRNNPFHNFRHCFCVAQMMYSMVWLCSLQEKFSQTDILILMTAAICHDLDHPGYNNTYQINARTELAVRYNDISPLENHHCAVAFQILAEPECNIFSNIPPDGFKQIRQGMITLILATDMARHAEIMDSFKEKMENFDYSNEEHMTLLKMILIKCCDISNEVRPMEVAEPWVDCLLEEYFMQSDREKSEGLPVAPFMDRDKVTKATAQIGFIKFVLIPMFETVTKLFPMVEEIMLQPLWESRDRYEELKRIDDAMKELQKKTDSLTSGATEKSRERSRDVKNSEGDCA
# T3 sequence (Q07343 whole entry): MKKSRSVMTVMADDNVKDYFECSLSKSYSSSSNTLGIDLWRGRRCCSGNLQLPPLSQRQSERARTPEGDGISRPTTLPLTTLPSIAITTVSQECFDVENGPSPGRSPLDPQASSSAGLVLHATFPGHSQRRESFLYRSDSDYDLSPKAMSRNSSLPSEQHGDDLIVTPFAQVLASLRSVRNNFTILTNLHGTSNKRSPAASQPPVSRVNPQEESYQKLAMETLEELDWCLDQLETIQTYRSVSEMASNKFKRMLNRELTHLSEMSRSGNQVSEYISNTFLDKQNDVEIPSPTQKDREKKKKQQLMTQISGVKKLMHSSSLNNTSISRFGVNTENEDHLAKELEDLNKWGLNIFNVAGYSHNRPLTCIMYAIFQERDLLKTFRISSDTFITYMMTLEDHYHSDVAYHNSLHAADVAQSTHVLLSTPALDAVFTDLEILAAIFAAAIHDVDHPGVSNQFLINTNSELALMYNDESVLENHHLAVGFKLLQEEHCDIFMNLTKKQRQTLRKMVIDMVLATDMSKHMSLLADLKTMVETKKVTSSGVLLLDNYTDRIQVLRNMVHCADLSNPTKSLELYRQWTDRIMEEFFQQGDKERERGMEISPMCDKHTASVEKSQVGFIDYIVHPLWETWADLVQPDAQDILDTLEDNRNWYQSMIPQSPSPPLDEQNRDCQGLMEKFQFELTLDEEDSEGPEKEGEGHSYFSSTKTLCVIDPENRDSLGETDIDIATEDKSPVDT
# High affinity cAMP-specific and IBMX-insensitive 3',5'-cyclic phosphodiesterase 8A, sequence (O60658 whole entry): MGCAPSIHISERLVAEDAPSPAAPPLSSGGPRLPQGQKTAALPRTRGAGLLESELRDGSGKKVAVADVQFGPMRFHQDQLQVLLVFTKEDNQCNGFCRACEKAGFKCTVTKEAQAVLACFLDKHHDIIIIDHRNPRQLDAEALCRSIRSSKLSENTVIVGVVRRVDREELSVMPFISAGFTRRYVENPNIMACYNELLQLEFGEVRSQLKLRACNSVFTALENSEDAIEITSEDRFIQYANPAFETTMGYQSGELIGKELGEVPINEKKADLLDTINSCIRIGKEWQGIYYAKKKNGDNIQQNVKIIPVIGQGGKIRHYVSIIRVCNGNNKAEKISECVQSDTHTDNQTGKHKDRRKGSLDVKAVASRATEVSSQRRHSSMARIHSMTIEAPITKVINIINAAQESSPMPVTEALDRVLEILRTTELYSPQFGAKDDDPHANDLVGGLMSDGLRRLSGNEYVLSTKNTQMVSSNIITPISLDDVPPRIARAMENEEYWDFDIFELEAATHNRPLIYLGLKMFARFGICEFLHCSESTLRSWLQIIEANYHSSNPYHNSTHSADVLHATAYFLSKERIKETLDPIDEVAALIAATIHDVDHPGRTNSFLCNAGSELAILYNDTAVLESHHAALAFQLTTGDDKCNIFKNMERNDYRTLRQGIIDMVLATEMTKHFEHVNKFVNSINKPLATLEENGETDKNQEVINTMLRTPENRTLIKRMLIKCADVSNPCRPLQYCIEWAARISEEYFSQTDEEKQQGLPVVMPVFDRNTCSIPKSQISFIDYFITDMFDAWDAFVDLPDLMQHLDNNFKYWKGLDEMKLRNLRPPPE
# cGMP-dependent 3',5'-cyclic phosphodiesterase, sequence (O00408 whole entry): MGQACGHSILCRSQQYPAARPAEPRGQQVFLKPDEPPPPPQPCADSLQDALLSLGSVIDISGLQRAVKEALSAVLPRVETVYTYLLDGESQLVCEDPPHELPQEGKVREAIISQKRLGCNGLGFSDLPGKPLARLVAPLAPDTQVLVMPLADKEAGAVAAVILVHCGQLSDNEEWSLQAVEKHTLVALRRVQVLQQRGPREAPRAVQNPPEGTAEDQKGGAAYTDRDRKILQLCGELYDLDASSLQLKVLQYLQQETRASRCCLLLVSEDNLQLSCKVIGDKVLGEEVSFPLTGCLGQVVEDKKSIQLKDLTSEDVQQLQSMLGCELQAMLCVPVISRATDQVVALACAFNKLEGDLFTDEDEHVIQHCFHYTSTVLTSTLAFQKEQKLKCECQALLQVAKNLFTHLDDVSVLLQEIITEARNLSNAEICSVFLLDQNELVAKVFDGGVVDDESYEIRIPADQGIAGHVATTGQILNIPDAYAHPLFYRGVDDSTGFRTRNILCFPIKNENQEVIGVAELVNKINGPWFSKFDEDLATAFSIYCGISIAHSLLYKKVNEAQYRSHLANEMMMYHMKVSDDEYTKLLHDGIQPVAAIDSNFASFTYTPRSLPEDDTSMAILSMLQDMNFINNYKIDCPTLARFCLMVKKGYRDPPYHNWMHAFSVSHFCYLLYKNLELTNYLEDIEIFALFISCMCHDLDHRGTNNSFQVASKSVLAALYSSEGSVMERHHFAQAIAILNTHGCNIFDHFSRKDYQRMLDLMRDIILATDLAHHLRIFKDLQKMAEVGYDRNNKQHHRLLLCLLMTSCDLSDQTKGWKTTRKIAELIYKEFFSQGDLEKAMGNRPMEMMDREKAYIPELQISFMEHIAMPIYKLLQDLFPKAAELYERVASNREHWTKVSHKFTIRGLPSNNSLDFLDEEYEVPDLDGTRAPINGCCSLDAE
# High affinity cAMP-specific and IBMX-insensitive 3',5'-cyclic phosphodiesterase 8B, sequence (O95263 whole entry): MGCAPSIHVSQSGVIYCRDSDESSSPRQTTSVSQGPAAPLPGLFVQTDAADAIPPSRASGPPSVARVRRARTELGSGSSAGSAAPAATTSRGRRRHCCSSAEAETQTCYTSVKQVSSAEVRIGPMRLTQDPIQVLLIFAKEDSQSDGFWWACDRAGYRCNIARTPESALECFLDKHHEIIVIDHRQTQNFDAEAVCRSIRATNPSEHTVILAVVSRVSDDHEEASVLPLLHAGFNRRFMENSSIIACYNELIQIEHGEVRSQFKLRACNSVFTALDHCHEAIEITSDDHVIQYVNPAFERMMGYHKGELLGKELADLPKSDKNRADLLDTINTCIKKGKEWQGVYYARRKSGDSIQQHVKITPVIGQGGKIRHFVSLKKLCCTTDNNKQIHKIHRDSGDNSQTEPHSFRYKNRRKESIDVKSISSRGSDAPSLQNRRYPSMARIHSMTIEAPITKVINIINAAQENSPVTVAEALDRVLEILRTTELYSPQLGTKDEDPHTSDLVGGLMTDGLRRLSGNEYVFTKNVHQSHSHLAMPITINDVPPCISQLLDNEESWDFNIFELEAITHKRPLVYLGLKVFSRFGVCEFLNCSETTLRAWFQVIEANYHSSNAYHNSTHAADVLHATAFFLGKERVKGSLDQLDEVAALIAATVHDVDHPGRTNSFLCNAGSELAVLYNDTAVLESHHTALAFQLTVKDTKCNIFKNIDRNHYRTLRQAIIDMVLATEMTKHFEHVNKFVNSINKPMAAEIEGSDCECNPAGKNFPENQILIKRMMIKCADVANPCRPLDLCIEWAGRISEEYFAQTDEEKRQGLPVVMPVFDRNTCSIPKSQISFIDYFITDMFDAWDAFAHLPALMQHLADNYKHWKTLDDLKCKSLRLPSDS
smiles,measurement,setting,value
C[C@@H](NC(=O)c1cccnc1Oc1ccc(F)cc1)c1cccs1,Activity,[1],0%
same,EC50,[2],22 nM
same,Activity,[3],9%
same,Activity,[4],4%
same,IC50,[5],> 16000 nM
same,Inhibition,Cynomolgus monkey,65%
same,IC50,[6],> 16000 nM
same,Activity,[7],22%
same,Activity,[8],0%
same,Activity,[9],5%
same,Activity,[10],6%
same,Activity,[11],0%
same,Activity,[12],6%
same,Activity,[13],0%
same,IC50,[14],> 16000 nM
same,Activity,[15],0%
same,Activity,[16],0%
same,Activity,[17],22%
same,Activity,[18],12%
same,IC50,[19],4 nM
same,Activity,[20],18%
same,Activity,[21],0%
same,Activity,[22],0%
same,IC50,[23],185 nM
same,Activity,[24],25%
same,Activity,[25],0%
same,Activity,[26],27%
same,Activity,[27],0%
same,IC50,[28],2 nM
same,Activity,[29],0%
same,Activity,[30],1%
same,Activity,[31],15%
same,IC50,[32],> 16000 nM
same,Activity,[33],23%
same,Activity,[34],0%
same,Activity,[35],0%
same,Activity,[36],22%
same,Activity,[37],8%
same,Activity,[38],26%
same,Activity,[39],27%
same,Activity,[40],10%
same,Activity,[41],0%
same,Activity,[42],60%
same,Activity,[43],12%
same,Activity,[44],14%
same,IC50,[45],> 16000 nM
same,Activity,[46],9%
same,Activity,[47],4%
same,Activity,[48],23%
same,Activity,[49],0%
same,IC50,[50],925 nM
same,IC30,[51],16 nM
same,Activity,[52],3%
same,Activity,[53],31%
same,Activity,[54],0%
same,Activity,[55],21%
same,Activity,[56],23%
same,IC50,[57],> 16000 nM
same,IC50,[58],1380 nM
same,Activity,[59],0%
same,Activity,[60],5%
same,Activity,[61],0%
same,IC50,[62],107 nM
same,Activity,[63],12%
same,IC50,Phosphodiesterase 3,> 16000 nM
same,Activity,[64],14%
same,Activity,[65],3%
COc1ccc(C2CNC(=O)C2)cc1OC1CCCC1 (centres undefined) [ROLIPRAM],IC50,[5],> 16000 nM
same,IC50,[6],> 16000 nM
same,IC50,[32],> 16000 nM
same,IC50,[66],> 16000 nM
same,IC30,[51],283 nM
same,IC50,[57],> 16000 nM
same,IC50,Phosphodiesterase 3,> 16000 nM
